Test results as given in patent US11339157B1, “4H-pyrrolo[3,2-c]pyridin-4-one derivatives” (Bayer Aktiengesellschaft, priority 2017, dated 2022).
Values joined by “and” are separate entries in the source; they are usually repeats but may differ in a detail not shown here. Identical values can stand only once.

What was measured:
[1] = target: EGFR ins SVD (insertion of SVD between D770 and N771) (Homo sapiens, UniProt P00533, INS767SVD); assay: Exon 20-Mutant-EGFR(D770_N771insSVD) kinase assay (TR-FRET); format: biochemical; details: Table 9; read-out: mutEGFR (D770_N771insSVD) kinase assay IC50
Sequence of EGFR ins SVD (insertion of SVD between D770 and N771) (P00533 with tags, fused parts or gaps INS767SVD limits assumed): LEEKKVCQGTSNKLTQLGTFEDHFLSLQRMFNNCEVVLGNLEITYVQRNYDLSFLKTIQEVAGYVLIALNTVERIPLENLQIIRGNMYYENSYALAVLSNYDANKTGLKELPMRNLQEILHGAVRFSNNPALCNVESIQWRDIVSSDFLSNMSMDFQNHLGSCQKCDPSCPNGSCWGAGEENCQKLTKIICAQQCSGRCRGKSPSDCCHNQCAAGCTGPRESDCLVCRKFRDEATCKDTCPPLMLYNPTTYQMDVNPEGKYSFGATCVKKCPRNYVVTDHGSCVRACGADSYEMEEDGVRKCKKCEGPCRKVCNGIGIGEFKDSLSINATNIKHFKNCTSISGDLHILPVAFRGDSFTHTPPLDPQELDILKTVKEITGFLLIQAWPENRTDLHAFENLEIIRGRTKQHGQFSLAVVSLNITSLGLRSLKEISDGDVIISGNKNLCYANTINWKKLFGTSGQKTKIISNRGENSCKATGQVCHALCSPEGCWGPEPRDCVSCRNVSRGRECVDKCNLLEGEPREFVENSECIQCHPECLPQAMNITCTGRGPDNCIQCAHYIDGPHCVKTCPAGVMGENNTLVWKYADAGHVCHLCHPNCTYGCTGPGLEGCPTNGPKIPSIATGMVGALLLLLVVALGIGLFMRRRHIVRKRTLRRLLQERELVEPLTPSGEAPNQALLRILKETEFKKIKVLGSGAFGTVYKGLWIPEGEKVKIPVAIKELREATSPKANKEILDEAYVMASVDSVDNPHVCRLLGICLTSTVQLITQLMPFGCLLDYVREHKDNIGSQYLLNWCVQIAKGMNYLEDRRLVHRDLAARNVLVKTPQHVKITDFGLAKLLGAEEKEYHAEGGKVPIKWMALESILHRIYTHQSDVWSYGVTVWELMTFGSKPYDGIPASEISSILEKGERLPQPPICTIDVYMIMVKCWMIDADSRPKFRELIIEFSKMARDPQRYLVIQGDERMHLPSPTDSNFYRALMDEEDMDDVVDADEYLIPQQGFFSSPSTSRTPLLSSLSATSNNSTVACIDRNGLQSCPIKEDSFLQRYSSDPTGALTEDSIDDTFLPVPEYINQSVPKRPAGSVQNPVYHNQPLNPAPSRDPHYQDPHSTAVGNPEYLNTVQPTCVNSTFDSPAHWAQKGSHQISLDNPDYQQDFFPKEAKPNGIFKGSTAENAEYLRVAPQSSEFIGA

Ba/F3-EGFR-insSVD cells = assay: Proliferation assay in BA/F3 (ins SVD) cells (Cell Titer-Glo); format: cell-based
Description: (§1) Cellular Data Description (WT, insSVD, Ins ASV)
(§2) Plates were incubated at 37° C. for 48 h. Retrovirus was harvested by filtering the media supernatant through a 0.45 μm filter.
(§3) Ba/F3 cells purchased from DSMZ were grown in RPMI+10% FBS+10 ng/mL IL-3 and infected with filtered retroviral supernatant at a 1:2 dilution. Polybrene was added to a concentration of 8 μg/mL, plates were spun for 90 min, and incubated overnight at 37° C. 2 μg/mL puromycin was added to the infected cells 24 h after infection and cells were continually grown in the presence of puromycin and 10 ng/mL IL-3. Following stably expressing Ba/F3 cell lines were generated: Ba/F3-EGFR-WT, Ba/F3-EGFR-insSVD.
(§4) The cells ectopically expressing WT EGFR were plated with 10 ng/mL Millipore Culture grade EGF. The cells ectopically expressing EGFR-insSVD were plated without EGF.
(§5) 100 nL of compound was added to each well using a 100 nL pin head, and plates were incubated at 37° C. for 48 h.
(§6) Cell viability was measured by adding 30 μL of Cell Titer-Glo Luminescent Cell Viability Reagent. Plates were sealed with Perkin Elmer Top-Seal, inverted several times to mix, and immediately centrifuged at 1000 rpm for 2 min. Plates were incubated in low light conditions for 8-10 min and luminescence was measured.

Ba/F3-EGFR-WT cells = assay: Proliferation assay in BA/F3 (wild type) cells (Cell Titer-Glo); format: cell-based; details: Mus musculus
Description: as §1, §2, §3, §4, §5, §6

[2] = Mus musculus, BaF3, 48 h, Table 10, plated without EGF
[3] = BaF3, 48 h, Table 10, plated with 10 ng/mL EGF
[4] = Table 10, plated without EGF, 48 h
[5] = Mus musculus, BaF3, Table 10, plated without EGF, 48 h
[6] = BaF3, Table 10, plated with 10 ng/mL EGF, 48 h

Row | Structure (SMILES) | IC50 [1] | IC50 (Ba/F3-EGFR-insSVD cells; [2]) | IC50 (Ba/F3-EGFR-WT cells; [3]) | IC50 (Ba/F3-EGFR-insSVD cells; [4]) | IC50 (Ba/F3-EGFR-insSVD cells; [5]) | IC50 (Ba/F3-EGFR-WT cells; [6])
1 | COc1c(Cl)cccc1Nc1c(-c2ccncc2OC[C@@H]2CCCN2)[nH]c2c1C(=O)NCC2 [Example 80, 3-(3-chloro-2-methoxyanilino)-2-(3-{[(2S)-pyrrolidin-2-yl]methoxy}pyridin-4-yl)-1,5,6,7-tetrahydro-4H-pyrrolo[3,2-c]pyridin-4-one] | 0.503 nM | 206 nM | 1460 nM | – | – | –
2 | CN1CCC[C@H]1COc1cnccc1-c1[nH]c2c(c1Nc1cccc(Cl)c1OC(F)F)C(=O)NCC2 [Example 50, 3-[3-chloro-2-(difluoromethoxy)anilino]-2-(3-{[(2S)-1-methylpyrrolidin-2-yl]methoxy}pyridin-4-yl)-1,5,6,7-tetrahydro-4H-pyrrolo[3,2-c]pyridin-4-one] | 1.26 nM | 60.9 nM | 2100 nM | – | – | –
3 | COC(C)(C)COc1cnccc1-c1[nH]c2c(c1Nc1ccccc1C(F)(F)F)C(=O)NCC2 [Example 42, 2-[3-(2-methoxy-2-methylpropoxy)pyridin-4-yl]-3-[2-(trifluoromethyl)anilino]-1,5,6,7-tetrahydro-4H-pyrrolo[3,2-c]pyridin-4-one] | 0.19 nM | 72.9 nM | 625 nM | – | – | –
4 | COc1c(F)cccc1Nc1c(-c2ccncc2OCC2CCCO2)[nH]c2c1C(=O)NCC2 (single isomer, unassigned; enantiomer 1) [Example 88, 3-(3-fluoro-2-methoxyanilino)-2-{3-[(oxolan-2-yl)methoxy]pyridin-4-yl}-1,5,6,7-tetrahydro-4H-pyrrolo[3,2-c]pyridin-4-one (enantiomer 1)] | 0.0888 nM | – | 388 nM | 38 nM | – | –
5 | COc1c(F)cccc1Nc1c(-c2ccncc2OCC(C)(C)N(C)C)[nH]c2c1C(=O)NCC2 [Example 74, 2-{3-[2-(dimethylamino)-2-methylpropoxy]pyridin-4-yl}-3-(3-fluoro-2-methoxyanilino)-1,5,6,7-tetrahydro-4H-pyrrolo[3,2-c]pyridin-4-one] | 0.865 nM | 97.9 nM | 4070 nM | – | – | –
6 | COC(C)(C)COc1cnccc1-c1[nH]c2c(c1Nc1cccc(F)c1C)C(=O)NCC2 [Example 21, 3-[(3-fluoro-2-methylphenyl)amino]-2-[3-(2-methoxy-2-methylpropoxy)pyridin-4-yl]-1,5,6,7-tetrahydro-4H-pyrrolo[3,2-c]pyridin-4-one] | – | 8.81 nM | 251 nM | 7.48 nM and < 4.78 nM and 6.8 nM and 7.49 nM | – | –
7 | COc1c(Cl)cccc1Nc1c(-c2ccncc2OC[C@H]2CCCO2)[nH]c2c1C(=O)NCC2 [Example 67, 3-(3-chloro-2-methoxyanilino)-2-(3-{[(2R)-oxolan-2-yl]methoxy}pyridin-4-1)-1,5,6,7-tetrahydro-4H-pyrrolo[3,2-c]pyridin-4-one] | 0.0908 nM | – | – | – | 9.33 nM | –
8 | COc1c(F)cccc1Nc1c(-c2ccncc2OC[C@@H](C)OC)[nH]c2c1C(=O)NCC2 [Example 92, 3-(3-fluoro-2-methoxyanilino)-2-{3-[(2R)-2-methoxypropoxy]pyridin-4-yl}-1,5,6,7-tetrahydro-4H-pyrrolo[3,2-c]pyridin-4-one] | 0.118 nM | 10.4 nM | 309 nM | – | – | –
9 | COc1c(F)cccc1Nc1c(-c2ccncc2OCCC(C)(C)OC)[nH]c2c1C(=O)NCC2 [Example 57, 3-(3-fluoro-2-methoxyanilino)-2-[3-(3-methoxy-3-methylbutoxy)pyridin-4-yl]1,5,6,7-tetrahydro-4H-pyrrolo[3,2-c]pyridin-4-one] | 0.228 nM | 14.7 nM | 535 nM | – | – | –
10 | COC(C)(C)COc1cnccc1-c1[nH]c2c(c1Nc1cccc(F)c1C#N)C(=O)NCC2 [Example 94, 2-fluoro-6-({2-[3-(2-methoxy-2-methylpropoxy)pyridin-4-yl]-4-oxo-4,5,6,7-tetrahydro-1H-pyrrolo[3,2-c]pyridin-3-yl}amino)benzonitrile] | 0.228 nM | 54.9 nM | 4620 nM | – | – | –
11 | Cc1c(F)cccc1Nc1c(-c2ccncc2OC[C@@H]2CCCN2C)[nH]c2c1C(=O)NCC2 [Example 49, 3-(3-fluoro-2-methylanilino)-2-(3-{[(25)-1-methylpyrrolidin-2-yl]methoxy}pyridin-4-yl)-1,5,6,7-tetrahydro-4H-pyrrolo[3,2-c]pyridin-4-one] | 0.518 nM | – | – | – | 19.1 nM | 919 nM
12 | CC(C)(COc1cnccc1-c1[nH]c2c(c1Nc1cccc(F)c1OC(F)F)C(=O)NCC2)N1CCOCC1 [Example 76, 3-[2-(difluoromethoxy)-3-fluoroanilino]-2-{3-[2-methyl-2-(morpholin-4-yl)propoxy]pyridin-4-yl}-1,5,6,7-tetrahydro-4H-pyrrolo[3,2-c]pyridin-4-one] | 0.845 nM | – | – | – | 250 nM | 2090 nM
13 | CCOC(C)(C)COc1cnccc1-c1[nH]c2c(c1Nc1cccc(F)c1OC)C(=O)NCC2 [Example 58, 2-[3-(2-ethoxy-2-methylpropoxy)pyridin-4-yl]-3-(3-fluoro-2-methoxyanilino)-1,5,6,7-tetrahydro-4H-pyrrolo[3,2-c]pyridin-4-one] | 0.113 nM | 18.6 nM | 561 nM | – | – | –
14 | COC(C)(C)COc1cnccc1-c1[nH]c2c(c1Nc1cccc(Cl)c1C)C(=O)NCC2 [Example 36, 3-(3-chloro-2-methylanilino)-2-[3-(2-methoxy-2-methylpropoxy)pyridin-4-yl]-1,5,6,7-tetrahydro-4H-pyrrolo[3,2-c]pyridin-4-one] | 0.194 nM | 9.55 nM | 529 nM | – | – | –
15 | O=C1NCCc2[nH]c(-c3ccncc3OCC3CCOCC3)c(Nc3cccc(Cl)c3OC(F)F)c21 [Example 82, 3-[3-chloro-2-(difluoromethoxy)anilino)-2-{3-[(oxan-4-yl)-methoxy]pyridin-4-yl}-1,5,6,7-tetrahydro-4H-pyrrolo[3,2-c]pyridin-4-one] | 0.399 nM | 909 nM | 8610 nM | – | – | –
16 | COc1c(Cl)cccc1Nc1c(-c2ccncc2OCC(C)(C)O)[nH]c2c1C(=O)NCC2 [Example 59, 3-(3-chloro-2-methoxyanilino)-2-[3-(2-hydroxy-2-methylpropoxy)pyridin-4-yl]-1,5,6,7-tetrahydro-4H-pyrrolo[3,2-c]pyridin-4-one] | < 0.0725 nM | 17.7 nM | 542 nM | – | – | –
17 | COC(C)(C)COc1cnccc1-c1[nH]c2c(c1Nc1ccccc1Cl)C(=O)NCC2 [Example 39, 3-(2-chloroanilino)-2-[3-(2-methoxy-2-methylpropoxy)pyridin-4-yl]-1,5,6,7-tetrahydro-4H-pyrrolo[3,2-c]pyridin-4-one] | 0.104 nM | 27.5 nM | 661 nM | – | – | –
18 | COC(C)(C)COc1cnccc1-c1[nH]c2c(c1Nc1cccc(Cl)c1Cl)C(=O)NCC2 [Example 34, 3-(2,3-dichloroanilino)-2-[3-(2-methoxy-2-methylpropoxy)pyridin-4-yl]-1,5,6,7-tetrahydro-4H-pyrrolo[3,2-c]pyridin-4-one] | 0.0946 nM | 7 nM | 278 nM | – | – | –
19 | COc1c(Cl)cccc1Nc1c(-c2ccncc2OC[C@@H]2CCCN2CC(F)(F)F)[nH]c2c1C(=O)NCC2 [Example 95, 3-(3-chloro-2-methoxyanilino)-2-(3-{[(2S)-1-(2,2,2-trifluoroethyl)pyrrolidin-2-yl]methoxy}pyridin-4-yl)-1,5,6,7-tetrahydro-4H-pyrrolo[3,2-c]pyridin-4-one] | 0.187 nM | 141 nM | 2370 nM | – | – | –
20 | COC(C)(C)COc1cnccc1-c1[nH]c2c(c1Nc1cc(F)cc(F)c1OC(F)F)C(=O)NCC2 [Example 43, 3-[2-(difluoromethoxy)-3,5-difluoroanilino]-2-[3-(2-methoxy-2-methylpropoxy)pyridin-4-yl]-1,5,6,7-tetrahydro-4H-pyrrolo[3,2-c]pyridin-4-one] | 0.1 nM | 117 nM | 1880 nM | – | – | –
21 | COc1c(Cl)cccc1Nc1c(-c2ccncc2OCC2CCCCN2C)[nH]c2c1C(=O)NCC2 (stereo not shown) [Example 63, 3-(3-chloro-2-methoxyanilino)-2-(3-{[1-methylpiperidin-2-yl]methoxy}pyridin-4-yl)-1,5,6,7-tetrahydro-4H-pyrrolo[3,2-c]pyridin-4-one] | 0.509 nM | 12.3 nM | 485 nM | – | – | –
22 | Cc1c(Cl)cccc1Nc1c(-c2ccncc2OCC(C)(C)N(C)C)[nH]c2c1C(=O)NCC2 [Example 60, 3-(3-chloro-2-methylanilino)-2-{3-[2-(dimethylamino)-2-methylpropoxy]pyridin-4-yl}-1,5,6,7-tetrahydro-4H-pyrrolo[3,2-c]pyridin-4-one] | 0.695 nM | 38.6 nM | 1750 nM | – | – | –
23 | COc1c(Cl)cccc1Nc1c(-c2ccncc2OC[C@@H]2CCCO2)[nH]c2c1C(=O)NCC2 [Example 66, 3-(3-chloro-2-methoxyanilino)-2-(3-{[(2S)-oxolan-2-yl]methoxy}pyridin-4-yl)-1,5,6,7-tetrahydro-4H-pyrrolo[3,2-c]pyridin-4-one] | 0.0932 nM | – | – | – | 4.6 nM | –
